Experimental data from ChEMBL document CHEMBL4613256, “Megastigmane Derivatives from the Cladodes of Opuntia humifusa and Their Nitric Oxide Inhibitory Activities in Macrophages” (J Nat Prod, 2020).
Calls of active or inactive are those of the source. No cut-off for these calls is given here.

Columns and labels:
RAW264.7 [1] = test: Cytotoxicity against mouse RAW264.7 cells assessed as reduction in cell viability at 6.25 to 100 uM after 24 hrs by EZ-Cytox cell viability assay; type: cell-based; conditions: raw264.7, 24 h
RAW264.7 [2] = test: Inhibition of LPS-induced NO production in mouse RAW264.7 cells by Griess reagent based assay; type: functional, cell-based
RAW264.7 [3] = test: Antiinflammatory activity against mouse RAW264.7 cells assessed as reduction in LPS-induced iNOS protein expression at 10 to 50 uM after 24 hrs by Western blot analysis; type: functional, cell-based
RAW264.7 [4] = test: Antiinflammatory activity against mouse RAW264.7 cells assessed as reduction in LPS-induced iNOS protein expression at 25 to 100 uM after 24 hrs by Western blot analysis; type: functional, cell-based

For `COc1cc(/C=C/CO)cc(OC)c1O[C@@H]1O[C@H](CO)[C@@H](O)[C@H](O)[C@H]1O` [SYRINGIN], the Activity (RAW264.7 [1]) was “Non-Toxic”.
With `C[C@@H](/C=C/[C@H]1C(CO)=CC(=O)CC1(C)C)O[C@@H]1O[C@H](CO)[C@@H](O)[C@H](O)[C@H]1O` the Activity (RAW264.7 [1]) was “Non-Toxic”.
`O=C1c2c(O)cc(O[C@@H]3O[C@H](CO)[C@@H](O)[C@H](O)[C@H]3O)cc2O[C@H](c2ccc(O)c(O)c2)[C@H]1O` was tested, and the IC50 (RAW264.7 [2]) was 43.8 µM, the inhibition (RAW264.7 [2]) was “Dose-dependent effect” and the Activity (RAW264.7 [1]) was “Non-Toxic”. For the same compound, the Activity (RAW264.7 [3]) was “Active”.
For `COc1cc([C@H]2OC[C@H]3[C@@H]2CO[C@@H]3c2cc(OC)c(O[C@@H]3O[C@H](CO)[C@@H](O)[C@H](O)[C@H]3O)c(OC)c2)cc(OC)c1O`, the Activity (RAW264.7 [1]) was “Non-Toxic”.
`CC1=CC(=O)CC(C)(C)[C@@]1(O)/C=C/[C@H](CO)O[C@@H]1O[C@H](CO)[C@@H](O)[C@H](O)[C@H]1O` was tested, and the Activity (RAW264.7 [1]) was “Non-Toxic”.
With `CC1=CC(=O)CC(C)(C)[C@H]1CC[C@@H](O)CO[C@@H]1O[C@H](CO)[C@@H](O)[C@H](O)[C@H]1O` the Activity (RAW264.7 [1]) was “Non-Toxic”.
With `COc1cc(C(C)=O)ccc1O[C@@H]1O[C@H](CO)[C@@H](O)[C@H](O)[C@H]1O` [ANDROSIN] the Activity (RAW264.7 [1]) was “Non-Toxic”.
`COc1cc(-c2oc3cc(O)cc(O)c3c(=O)c2O[C@@H]2O[C@H](CO[C@@H]3O[C@@H](C)[C@H](O)[C@@H](O)[C@H]3O)[C@@H](O)[C@H](O)[C@H]2O)ccc1O` [NARCISSIN] was tested, and the Activity (RAW264.7 [1]) was “Non-Toxic”.
For `COc1cc(/C=C/C(=O)O)cc(OC)c1O[C@@H]1O[C@H](CO)[C@@H](O)[C@H](O)[C@H]1O`, the Activity (RAW264.7 [1]) was “Non-Toxic”.
For `CC1=CC(=O)CC(C)(C)[C@@H]1/C=C/[C@H](CO)O[C@@H]1O[C@H](CO)[C@@H](O)[C@H](O)[C@H]1O`, the Activity (RAW264.7 [1]) was “Non-Toxic”.
In the case of `COc1cc(/C=C/C(=O)O[C@@H]2O[C@H](CO)[C@@H](O)[C@H](O)[C@H]2O)ccc1O`, the Activity (RAW264.7 [1]) is reported as “Non-Toxic”.
For `COc1cc(-c2oc3cc(O)cc(O)c3c(=O)c2O[C@@H]2O[C@H](CO)[C@@H](O)[C@H](O)[C@H]2O)ccc1O`, the Activity (RAW264.7 [1]) was “Non-Toxic”.
`CC1=CC(=O)CC(C)(C)[C@H]1CC[C@@H](CO)O[C@@H]1O[C@H](CO)[C@@H](O)[C@H](O)[C@H]1O` was tested, and the Activity (RAW264.7 [1]) was “Non-Toxic”.
For `COc1cc(-c2oc3cc(O)cc(O)c3c(=O)c2O[C@@H]2O[C@H](CO)[C@@H](O)[C@H](O)[C@H]2O)ccc1O[C@@H]1O[C@H](CO)[C@@H](O)[C@H](O)[C@H]1O`, the Activity (RAW264.7 [1]) was “Non-Toxic”.
`CC1=CC(=O)CC(C)(C)[C@@]1(O)/C=C/[C@H](C)O[C@@H]1O[C@H](CO)[C@@H](O)[C@H](O)[C@H]1O` [6S,9S-ROSEOSIDE] was tested, and the Activity (RAW264.7 [1]) was “Non-Toxic”.
With `O=C1C[C@@H](c2cc(O)cc(O)c2)Oc2cc(O)cc(O)c21` the Activity (RAW264.7 [1]) was “Non-Toxic”.
For `CC(C)(O)c1ccc(CO[C@@H]2O[C@H](CO)[C@@H](O)[C@H](O)[C@H]2O)cc1`, the Activity (RAW264.7 [1]) was “Non-Toxic”.
In the case of `O=C1c2c(O)cc(O)cc2O[C@H](c2ccc(O)c(O)c2)[C@H]1O` [(+)-TAXIFOLIN], the IC50 (RAW264.7 [2]) is reported as 81.6 µM, the inhibition (RAW264.7 [2]) is reported as “Dose-dependent effect” and the Activity (RAW264.7 [4]) is reported as “Active”. The Activity (RAW264.7 [1]) was “Non-Toxic”.
With `O=C1c2c(O)cc(O)cc2O[C@H](c2ccc(O)cc2)[C@H]1O` [DIHYDROKAEMPFEROL] the Activity (RAW264.7 [1]) was “Non-Toxic”.
With `CC1=CC(=O)CC(C)(C)[C@H]1/C=C/[C@@H](CO)O[C@@H]1O[C@H](CO)[C@@H](O)[C@H](O)[C@H]1O` the Activity (RAW264.7 [1]) was “Non-Toxic”.
`CC1=CC(=O)CC(C)(C)[C@H]1CC[C@@H](O)CO` was tested, and the Activity (RAW264.7 [1]) was “Non-Toxic”.
With `O=c1c(O)c(-c2ccc(O)c(O)c2)oc2cc(O)cc(O)c12` [QUERCETIN] the IC50 (RAW264.7 [2]) was 22.7 µM.
